Measured values published in ChEMBL document CHEMBL1152110, “Tetraazaacenaphthene and tetraazaphenalene derivatives: A new class of hepatoprotectants: Part IV” (1995).

Assays:
Type in all cases: functional
Rattus norvegicus [1] = experiment: Hepatoprotective activity against thioacetamide-induced toxicity in rats at a dose of 6 mg/Kg dose (p.o. x 7 days) expressed as % protection afforded in […] (ALP) levels
Rattus norvegicus [2] = experiment: Hepatoprotective activity against thioacetamide-induced toxicity in rats at a dose of 6 mg/Kg dose (p.o. x 7 days), expressed as % protection afforded in glutamate oxaloacetate transaminase (GOT) levels
Rattus norvegicus [3] = experiment: Hepatoprotective activity against thioacetamide-induced toxicity in rats at a dose of 6 mg/Kg dose (p.o. x 7 days), expressed as % protection afforded in glutamate pyruvate transaminase (GPT) levels
Rattus norvegicus [4] = experiment: Hepatoprotective activity against thioacetamide-induced toxicity in rats at a dose of 6 mg/Kg dose (p.o. x 7 days), expressed as % protection afforded in serum bilirubin levels
Rattus norvegicus [5] = experiment: Hepatoprotective activity against thioacetamide-induced toxicity in rats at a dose of 6 mg/Kg dose (p.o. x 7 days), expressed as % protection afforded in […] (ALP) levels

Compound	Protection (Rattus norvegicus [1]) [%]	Protection (Rattus norvegicus [2]) [%]	Protection (Rattus norvegicus [3]) [%]	Protection (Rattus norvegicus [4]) [%]	Protection (Rattus norvegicus [5]) [%]
CCO/C(O)=C(\C1=NCCCN1)c1nnc(N)s1	38	26	50	22	–
Cc1ccccc1N1C(=O)C2C(=O)N(c3ccccc3C)C(=O)N3CCN(C1=O)C23 (stereo unspecified)	16	18	15	18	–
CCN1C(=N)C2C(=O)N(CC)C(=S)N3CCCN(C1=S)C23 (stereo unspecified)	48	40	50	50	–
CCO/C(O)=C(\C1=NCCN1)c1nnc(N)s1	–	33	51	53	19
CCN1C(=N)C2C(=O)N(CC)C(=S)N3CCN(C1=S)C23 (stereo unspecified)	17	50	87	57	–
CC/N=C(/S)N1CCn2c1c(C#N)c(=O)n(CC)c2=S	56	31	70	60	–
O=C1C2C(=O)N(c3ccccc3)C(=S)N3CCN(C(=S)N1c1ccccc1)C23 (stereo unspecified)	20	27	18	25	–
CCN1C(=O)C2C(=O)N(CC)C(=S)N3CCN(C1=S)C23 (stereo unspecified)	22	20	34	31	–
SILYMARIN	47	50	47	61	–
